Measurements published in patent publication US20240018118A1, “TRICYCLIC COMPOUNDS TO DEGRADE NEOSUBSTRATES FOR MEDICAL THERAPY” (C 4 Therapeutics, Inc., priority 2020, published 2024).
Read-outs that look alike come from different tables or passages of the source.

Experiments:
GSPT1 = GSPT1 (Homo sapiens, UniProt P15170+Q96SW2); test: HiBiT degradation assay, 293T.114 cells, GSPT1; assay type: cell-based
Description: GSPT1 degradation was determined based on quantification of luminescent signal using Nano-Glo® HiBiT Lytic Assay kit. Test compounds were added to the 384-well plate from a top concentration of 10 μM with 5 points, 3-fold titration in quadruplicates. 293T.114 cells were added into 384-well plates at a cell density of 6000 cells per well. […] The cells treated in the absence of the test compound were the negative control and the cells without Nano-Glo® HiBiT Lytic reagent were the positive control. […] Luminescence was acquired on EnVision™ Multilabel Reader (PerkinElmer, Santa Clara, CA, USA).

SALL4 = SALL4 (Homo sapiens, UniProt Q96SW2+Q9UJQ4); test: HiBiT degradation assay, KELLY.2 (SALL4-HiBiT) cells; assay type: cell-based; conditions: for DC50: KELLY.2 cells, 6 hours; for Emax: read-out: HiBiT-Degradation KELLY.2 SALL4 6 hours Emax, KELLY.2 cells
Description: RPMI 1640 Medium without phenol red, fetal bovine serum (FBS), and Sodium Pyruvate (100 mM) were purchased from Gibco (Grand Island, NY, USA). Nano-Glo® HiBiT Lytic Assay System was purchased from Promega (Madison, WI, USA). […] Cell culture flasks and 384-well microplates were acquired from VWR (Radnor, PA, USA).
SALL4 degradation was determined based on quantification of luminescent signal using Nano-Glo® HiBiT Lytic Assay kit. Test compounds were added to the 384-well plate from a top concentration of 10 μM with 11 points, half log titration in duplicates. KELLY.2 cells were added into 384-well plates at a cell density of 6000 cells per well. The plates were kept at 37° C. with 5% CO2 for 6 hours. The cells treated in the absence of the test compound were the negative control and the cells without Nano-Glo® HiBiT Lytic reagent were the positive control. After 6-hour incubation, Nano-Glo® HiBiT Lytic Assay reagents were added to the cells. Luminescence was acquired on EnVision™ Multilabel Reader (PerkinElmer, Santa Clara, CA, USA).

CRBN = molecular target: T1, CRBN (Homo sapiens, UniProt Q96SW2); test: NanoBRET CRBN binding, 293T.116 cells; conditions: 2 hours
T1 construct: expressed in transfected cells; host or cells: 293T (line named 293T.116)

IKZF1 = molecular target: T2, IKZF1 (Homo sapiens, UniProt Q13422+Q96SW2); test: HiBiT degradation assay, NCIH929.11 (HiBiT-IKZF1) cells; assay type: cell-based; conditions: for DC50: NCHI929.11 cells, 6 hours; for Emax: read-out: HiBiT-Degradation NCHI929.11 IKZF1 6 hours Emax, NCHI929.11 cells
T2 construct: endogenously expressing IKZF1 with HiBiT fusion tag via CRISPR; endogenous in cells; host or cells: NCIH929.11 (CRISPR knock-in)
Description: RPMI no-phenol red medium and fetal bovine serum (FBS) were purchased from Gibco (Grand Island, NY, USA). Nano-Glo® HiBiT Lytic Assay System was purchased from Promega (Madison, WI, USA). NCIH929.11 (HiBiT-IKZF1) cell line was generated in house, endogenously expressing IKZF1 with HiBiT fusion tag via CRISPR. Cell culture flasks and 384-well microplates were acquired from VWR (Radnor, PA, USA).
IKZF 1 degradation was determined based on quantification of luminescent signal using Nano-Glo® HiBiT Lytic Assay kit. Test compounds were added to the 384-well plate from a top concentration of 10 μM with 11 points, half-log titration in duplicates. NCIH929.11 cells expressing HiBiT-tagged TKZF1 were added into 384-well plates in RPMI medium containing 10% FBS and 0.05 mM 2-mercaptoethanol at a cell density of 15000 cells per well. The plates were kept at 37° C. with […] for 6 hours. Cells treated in the absence of the test compound were the negative control and wells containing media only were the positive control. After 6-hour incubation, Nano-Glo® HiBiT Lytic Assay reagents were added to the designated wells. Luminescence was acquired on EnVision™ Multilabel Reader (PerkinElmer, Santa Clara, CA, USA).

[1] = 293T.114 cells, 6 hours, read-out: HiBiT-Degradation 293T.114 GSPT1 6 hours DC50
[2] = read-out: HiBiT-Degradation 293T.114 GSPT1 6 hours Emax, 293T.114 cells, 6 hours
[3] = 293T.114 cells, 24 hours, read-out: HiBiT-Degradation 293T.114 GSPT1 24 hours DC50
[4] = 293T.114 cells, 24 hours, read-out: HiBiT-Degradation 293T.114 GSPT1 24 hours Emax
[5] = 293T.114 cells, 48 hours, read-out: HiBiT-Degradation 293T.114 GSPT1 48 hours DC50
[6] = 293T.114 cells, 48 hours, read-out: HiBiT-Degradation 293T.114 GSPT1 48 hours Emax

Sequence of SALL4 (Q9UJQ4 whole entry): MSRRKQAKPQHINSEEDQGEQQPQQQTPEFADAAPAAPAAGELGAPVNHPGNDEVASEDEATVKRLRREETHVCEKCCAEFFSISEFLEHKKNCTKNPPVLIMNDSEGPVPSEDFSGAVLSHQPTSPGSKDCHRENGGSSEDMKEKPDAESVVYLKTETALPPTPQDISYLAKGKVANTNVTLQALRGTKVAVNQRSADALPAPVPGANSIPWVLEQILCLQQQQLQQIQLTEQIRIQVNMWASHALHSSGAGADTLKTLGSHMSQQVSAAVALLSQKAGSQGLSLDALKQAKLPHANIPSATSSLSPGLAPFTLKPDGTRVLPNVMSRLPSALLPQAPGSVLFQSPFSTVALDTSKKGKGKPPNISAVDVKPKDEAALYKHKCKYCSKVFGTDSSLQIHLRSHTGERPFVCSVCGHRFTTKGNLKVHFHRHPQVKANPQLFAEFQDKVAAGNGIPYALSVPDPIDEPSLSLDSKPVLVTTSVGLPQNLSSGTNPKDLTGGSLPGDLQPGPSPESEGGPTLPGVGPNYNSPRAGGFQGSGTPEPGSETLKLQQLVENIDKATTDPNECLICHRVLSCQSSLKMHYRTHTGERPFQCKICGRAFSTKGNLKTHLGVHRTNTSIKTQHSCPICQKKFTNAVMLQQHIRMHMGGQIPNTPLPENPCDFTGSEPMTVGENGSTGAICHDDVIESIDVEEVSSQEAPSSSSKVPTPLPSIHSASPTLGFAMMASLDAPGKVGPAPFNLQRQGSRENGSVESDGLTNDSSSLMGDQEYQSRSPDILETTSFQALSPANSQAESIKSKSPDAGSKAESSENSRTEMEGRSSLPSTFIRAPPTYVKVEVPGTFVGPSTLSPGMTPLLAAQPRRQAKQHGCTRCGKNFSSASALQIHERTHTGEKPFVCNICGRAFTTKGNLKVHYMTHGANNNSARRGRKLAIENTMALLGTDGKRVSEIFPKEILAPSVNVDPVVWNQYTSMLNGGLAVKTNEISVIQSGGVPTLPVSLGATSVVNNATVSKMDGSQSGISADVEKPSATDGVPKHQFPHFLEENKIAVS
Sequence of SALL4 (Q96SW2 whole entry): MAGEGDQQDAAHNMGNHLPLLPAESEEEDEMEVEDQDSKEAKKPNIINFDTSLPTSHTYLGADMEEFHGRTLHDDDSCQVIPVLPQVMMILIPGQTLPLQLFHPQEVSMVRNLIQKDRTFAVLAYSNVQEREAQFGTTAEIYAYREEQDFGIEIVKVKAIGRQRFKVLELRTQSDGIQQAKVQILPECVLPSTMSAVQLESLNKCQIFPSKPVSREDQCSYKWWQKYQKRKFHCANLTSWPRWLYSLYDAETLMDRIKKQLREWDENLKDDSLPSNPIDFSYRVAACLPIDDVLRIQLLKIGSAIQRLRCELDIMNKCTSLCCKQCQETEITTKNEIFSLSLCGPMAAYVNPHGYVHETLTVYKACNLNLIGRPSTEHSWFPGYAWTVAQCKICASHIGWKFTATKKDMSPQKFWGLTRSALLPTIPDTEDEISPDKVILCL
Sequence of SALL4 (Q16531 2-1140 partner limits assumed): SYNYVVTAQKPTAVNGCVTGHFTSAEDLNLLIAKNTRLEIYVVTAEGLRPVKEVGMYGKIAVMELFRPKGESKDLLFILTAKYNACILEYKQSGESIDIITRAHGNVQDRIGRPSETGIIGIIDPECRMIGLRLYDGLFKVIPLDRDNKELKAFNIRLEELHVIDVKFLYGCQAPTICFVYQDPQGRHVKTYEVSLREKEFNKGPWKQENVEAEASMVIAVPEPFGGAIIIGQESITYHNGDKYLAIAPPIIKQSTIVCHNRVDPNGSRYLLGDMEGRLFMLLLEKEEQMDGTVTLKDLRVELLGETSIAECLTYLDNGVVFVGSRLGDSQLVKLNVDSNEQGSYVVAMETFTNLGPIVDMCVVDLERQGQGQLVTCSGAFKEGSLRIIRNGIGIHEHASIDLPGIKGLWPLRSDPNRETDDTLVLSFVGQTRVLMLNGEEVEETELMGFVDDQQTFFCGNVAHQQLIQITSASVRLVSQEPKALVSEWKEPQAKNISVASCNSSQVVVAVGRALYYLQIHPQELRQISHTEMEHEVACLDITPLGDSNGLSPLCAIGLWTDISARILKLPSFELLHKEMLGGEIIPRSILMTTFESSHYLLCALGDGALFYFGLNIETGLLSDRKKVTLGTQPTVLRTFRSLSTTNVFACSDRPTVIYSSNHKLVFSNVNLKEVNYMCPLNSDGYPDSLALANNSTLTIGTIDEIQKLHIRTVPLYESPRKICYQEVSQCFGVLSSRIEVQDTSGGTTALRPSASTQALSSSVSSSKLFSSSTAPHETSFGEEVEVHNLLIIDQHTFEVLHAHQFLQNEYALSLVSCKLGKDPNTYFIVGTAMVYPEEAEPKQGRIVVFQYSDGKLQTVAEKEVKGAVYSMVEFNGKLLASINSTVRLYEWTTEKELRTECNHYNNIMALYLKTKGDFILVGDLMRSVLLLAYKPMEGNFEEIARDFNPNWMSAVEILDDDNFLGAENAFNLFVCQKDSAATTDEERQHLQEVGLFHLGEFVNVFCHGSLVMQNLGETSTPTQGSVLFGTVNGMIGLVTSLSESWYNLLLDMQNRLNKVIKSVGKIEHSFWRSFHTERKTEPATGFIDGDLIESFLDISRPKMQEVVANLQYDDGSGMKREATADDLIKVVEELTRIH
T1 sequence (Q96SW2 whole entry): as the sequence (Q96SW2 whole entry) above
T1 sequence (Q16531 2-1140 partner limits assumed): as the sequence (Q16531 2-1140 partner limits assumed) above
Sequence of GSPT1 (P15170 whole entry): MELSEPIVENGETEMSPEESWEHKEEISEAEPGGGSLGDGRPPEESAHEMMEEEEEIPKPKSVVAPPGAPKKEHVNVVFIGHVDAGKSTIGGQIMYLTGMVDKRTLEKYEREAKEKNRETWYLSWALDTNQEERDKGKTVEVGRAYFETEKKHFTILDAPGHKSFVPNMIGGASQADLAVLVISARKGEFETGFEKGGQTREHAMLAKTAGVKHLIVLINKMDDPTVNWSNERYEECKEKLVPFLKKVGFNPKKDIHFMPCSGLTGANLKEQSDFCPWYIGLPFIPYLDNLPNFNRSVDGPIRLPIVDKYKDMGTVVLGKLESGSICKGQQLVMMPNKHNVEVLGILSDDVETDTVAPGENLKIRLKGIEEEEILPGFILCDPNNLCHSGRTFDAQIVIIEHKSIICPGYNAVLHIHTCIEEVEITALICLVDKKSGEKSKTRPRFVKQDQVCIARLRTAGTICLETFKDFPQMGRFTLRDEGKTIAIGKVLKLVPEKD
Sequence of GSPT1 (Q96SW2 whole entry): as the sequence (Q96SW2 whole entry) above
Sequence of GSPT1 (Q16531 2-1140 partner limits assumed): as the sequence (Q16531 2-1140 partner limits assumed) above
T2 sequence (Q13422 whole entry, the tested form may be a part): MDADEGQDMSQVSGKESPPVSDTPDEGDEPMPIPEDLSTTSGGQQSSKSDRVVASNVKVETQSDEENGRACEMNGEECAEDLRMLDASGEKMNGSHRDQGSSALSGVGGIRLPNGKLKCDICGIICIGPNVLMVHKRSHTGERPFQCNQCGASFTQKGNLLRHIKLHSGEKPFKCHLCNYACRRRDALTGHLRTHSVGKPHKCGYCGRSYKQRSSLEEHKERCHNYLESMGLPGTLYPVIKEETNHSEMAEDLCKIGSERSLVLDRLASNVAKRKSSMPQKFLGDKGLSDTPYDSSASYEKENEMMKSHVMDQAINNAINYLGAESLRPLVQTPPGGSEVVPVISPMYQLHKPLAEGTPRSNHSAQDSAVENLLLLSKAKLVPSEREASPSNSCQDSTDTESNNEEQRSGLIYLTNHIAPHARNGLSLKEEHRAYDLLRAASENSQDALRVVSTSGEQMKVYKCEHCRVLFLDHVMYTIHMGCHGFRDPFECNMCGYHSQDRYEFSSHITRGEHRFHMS
T2 sequence (Q96SW2 whole entry, the tested form may be a part): as the sequence (Q96SW2 whole entry) above
T2 sequence (Q16531 2-1140 partner limits assumed): as the sequence (Q16531 2-1140 partner limits assumed) above

| SMILES | DC50 (GSPT1; [1]) [nM] | Emax (GSPT1; [2]) [%] | DC50 (SALL4) [nM] | Emax (SALL4) [%] | IC50 (CRBN) [nM] | DC50 (IKZF1) [nM] | Emax (IKZF1) [%] | DC50 (GSPT1; [3]) [nM] | Emax (GSPT1; [4]) [%] | DC50 (GSPT1; [5]) [nM] | Emax (GSPT1; [6]) [%] | Emax (GSPT1; read-out: GSPT1 Emax @ 10 μM 24 Hours, 24 hours) [%] |
| --- | --- | --- | --- | --- | --- | --- | --- | --- | --- | --- | --- | --- |
| CC1(n2cc(Cc3ccc4c5c(cccc35)C(=O)N4C3CCC(=O)NC3=O)cn2)CCN(C(=O)C2(C(F)(F)F)CC2)CC1 (stereo not drawn) [Compound 203] | > 10000 | 60 to 95 | < 100 | < 45 | < 100 |  |  |  |  |  |  |  |
| O=C1CCC(N2C(=O)c3ccc(N4CCc5ccccc54)c4cccc2c34)C(=O)N1 (stereo not drawn) [Compound 209, 3-(5-indolin-1-yl-2-oxo-benzo[cd]indol-1-yl)piperidine-2,6-dione] | > 10000 | 60 to 95 | < 100 | < 45 |  | > 10000 | 60 to 95 |  |  |  |  |  |
| N#Cc1ccc(N2CCN(Cc3ccc(Cc4ccc5c6c(cccc46)C(=O)N5[C@H]4CCC(=O)NC4=O)cc3)CC2)c(F)c1 [Compound 78, (S)-4-(4-(4-((1-(2,6-dioxopiperidin-3-yl)-2-oxo-1,2-dihydrobenzo[cd]indol-6-yl)methyl)benzyl)piperazin-1-yl)-3-fluorobenzonitrile] | > 10000 | 60 to 95 | < 100 | < 45 | < 100 | < 100 | < 45 |  |  |  |  |  |
| O=C1CCC(N2C(=O)c3ccc(CNCCc4ccc(Cl)cc4)c4cccc2c34)C(=O)N1 (stereo not drawn) [Compound 157] |  |  | < 100 | < 45 | < 100 | 100 to 1000 | < 45 | > 10000 | 60 to 95 | > 10000 | 60 to 95 |  |
| CC(NC(=O)c1ccc2c3c(ccnc13)N(C1CCC(=O)NC1=O)C2=O)c1ccccc1 (stereo not drawn) [Compound 185, 27-(2,6-dioxo-3-piperidyl)-20-oxo-N-(1-phenylethyl)-24,27-diazatricyclododeca-6,8(15),9(24),13(16),14(17)-pentaene-14-carboxamide] | > 100 | 60 to 95 | < 100 | < 45 |  |  |  |  |  |  |  |  |
| O=C1CCC(N2C(=O)c3cccc4c(Cc5cnn(C6CCN(C(=O)C7(C(F)(F)F)CCC7)CC6)c5)ccc2c34)C(=O)N1 (stereo not drawn) [Compound 201] | > 10000 | > 95 | < 100 | < 45 | < 100 |  |  |  |  |  |  |  |
| COC(=O)c1ccc(Nc2ccc3cccc4c3c2C(=O)N4C2CCC(=O)NC2=O)cc1 (stereo not drawn) [Compound 186, Methyl 4-[[1-(2,6-dioxo-3-piperidyl)-2-oxo-benzo[cd]indol-3-yl]amino]benzoate] | > 10000 | 60 to 95 | > 10000 | 60 to 95 |  | > 10000 | 60 to 95 |  |  |  |  |  |
| O=C1CCC(N2C(=O)c3ccc(CNCc4cc(F)ccc4F)c4cccc2c34)C(=O)N1 (stereo not drawn) [Compound 155, 3-[5-[[(2,5-difluorophenyl)methylamino]methyl]-2-oxo-benzo[cd]indol-1-yl]piperidine-2,6-dione] |  |  | < 100 | < 45 | < 100 | > 10000 | 45 to 60 | > 10000 | 60 to 95 | > 10000 | 60 to 95 |  |
| Cc1cc(C)nc(-c2ccc3c4c(cccc24)N(C2CCC(=O)NC2=O)C3=O)n1 (stereo not drawn) [Compound 87, 3-[5-(4,6-dimethylpyrimidin-2-yl)-2-oxo-benzo[cd]indol-1-yl]piperidine-2,6-dione] | > 100 | 60 to 95 | < 100 | < 45 |  |  |  |  |  |  |  |  |
| CC1(n2cc(Cc3ccc4c5c(cccc35)C(=O)N4C3CCC(=O)NC3=O)cn2)CCN(C(=O)C2CC2)CC1 (stereo not drawn) [Compound 205] | > 10000 | 60 to 95 | < 100 | < 45 | < 100 |  |  |  |  |  |  |  |
| CC1(n2cc(Cc3ccc4c5c(cccc35)C(=O)N4C3CCC(=O)NC3=O)cn2)CCN(c2ncccc2F)CC1 (stereo not drawn) [Compound 208, 3-[6-[[1-[1-(3-fluoro-2-pyridyl)-4-methyl-4-piperidyl]pyrazol-4-yl]methyl]-2-oxo-benzo[cd]indol-1-yl]piperidine-2,6-dione] | > 10000 | 60 to 95 | < 100 | < 45 |  |  |  |  |  |  |  |  |
| COc1ncc(CN2CCC(c3ccc4c5c(cccc35)N(C3CCC(=O)NC3=O)C4=O)CC2)cn1 (stereo not drawn) [Compound 177] | > 10000 | 60 to 95 | > 10000 | 60 to 95 | < 100 |  |  |  |  |  |  |  |
| N#CC1(C(=O)N2CCC(n3cc(Cc4ccc5c6c(cccc46)C(=O)N5C4CCC(=O)NC4=O)cn3)CC2)CCC1 (stereo not drawn) [Compound 200, 1-[4-[4-[[1-(2,6-dioxo-3-piperidyl)-2-oxo-benzo[cd]indol-6-yl]methyl]pyrazol-1-yl]piperidine-1-carbonyl]cyclobutanecarbonitrile] | > 10000 | > 95 | < 100 | < 45 |  |  |  |  |  |  |  |  |
| CN1CC(c2ccc3c4c(cccc24)N(C2CCC(=O)NC2=O)C3=O)C1 (stereo not drawn) [Compound 90, 3-[5-(1-methylazetidin-3-yl)-2-oxo-benzo[cd]indol-1-yl]piperidine-2,6-dione] | > 100 | 60 to 95 | < 100 | < 45 |  |  |  |  |  |  |  |  |
| CC1(n2cc(Cc3ccc4c5c(cccc35)C(=O)N4C3CCC(=O)NC3=O)cn2)CCN(C(=O)C2(C#N)CCCCC2)CC1 (stereo not drawn) [Compound 204] | > 10000 | 60 to 95 | < 100 | < 45 | < 100 |  |  |  |  |  |  |  |
| Cc1ccc(CN2CCC(c3ccc4c5c(cccc35)N(C3CCC(=O)NC3=O)C4=O)CC2)cc1F (stereo not drawn) [Compound 176] | > 10000 | 60 to 95 | > 10000 | 60 to 95 | < 100 |  |  |  |  |  |  |  |
| O=C1CCC(N2C(=O)c3ccc(CN4CC(Oc5ccccc5)C4)c4cccc2c34)C(=O)N1 (stereo not drawn) [Compound 63, 3-(2-oxo-5-((3-phenoxyazetidin-1-yl)methyl)benzo[cd]indol-1(2H)-yl)piperidine-2,6-dione] |  |  |  |  |  |  |  |  |  |  |  | < 45 |
| O=C1CCC(N2C(=O)c3cc(CNCc4ccco4)cc4cccc2c34)C(=O)N1 (stereo not drawn) [Compound 160] | > 10000 | 45 to 60 |  |  |  |  |  |  |  |  |  |  |
| CC(C)(C)OC(=O)N1CCC(n2cc(Cc3ccc4c5c(cccc35)C(=O)N4[C@H]3CCC(=O)NC3=O)cn2)CC1 [Compound 197, tert-butyl 4-[4-[[1-[(3S)-2,6-dioxo-3-piperidyl]-2-oxo-benzo[cd]indol-6-yl]methyl]pyrazol-1-yl]piperidine-1-carboxylate] | > 10000 | 60 to 95 | < 100 | < 45 |  | < 100 | < 45 |  |  |  |  |  |
| O=C1CCC(N2C(=O)c3ccc(C4(F)CCN(Cc5ccccc5)CC4)c4nccc2c34)C(=O)N1 (stereo not drawn) [Compound 81, 3-[18-(1-benzyl-4-fluoro-4-piperidyl)-24-oxo-27,30-diazatricyclododeca-5(17),6(18),7(19),8(27),20-pentaen-30-yl]piperidine-2,6-dione] | > 100 | 60 to 95 | < 100 | < 45 |  |  |  |  |  |  |  |  |
| CN(c1ccc2c3c(cccc13)N(C1CCC(=O)NC1=O)C2=O)C1CCN(Cc2ccccc2)C1 (stereo not drawn) [Compound 220] | > 100 | 60 to 95 |  |  |  |  |  |  |  |  |  |  |
